One data set deals with PBM cells. The settings on record: human.
The next data set relates to HIV-1 (strain LAI). The data set is classed as cell-based.
Data set [1] in a line: in vitro. The settings on record: human.
The test system of data set [2] is Punta Toro virus (strain Adames).
Data set [3] can be described thus: in vitro. The settings on record: human. This is another data set of the same source.
A further data set concerns SARSCoV. Put plainly: organism not typed. Format: cell-based. Particulars: read-out: SARSCoV IC50.

The term IC50 denotes the midpoint of a concentration-inhibition curve. Consider `Cc1cn([C@H]2C[C@H](N=[N+]=[N-])[C@@H](CO)O2)c(=O)[nH]c1=O` [AZT], for which the IC50 with PBM cells was over 100 µM.
For the molecule `Nc1ncnc2c([C@@H]3C=C(CO)[C@@H](O)[C@H]3O)c[nH]c12` [Compound 1, (1′S,2′S,3′R)-4-Amino-7-(2′,3′-dihydroxy-4′-hydroxymethyl-4′-cyclopenten-1′-yl)-5H-pyrrolo[3,2-d]pyrimidine], the “Anti-HIV activity (in words)” value in the data set with HIV-1 (strain LAI) was “moderate anti-HIV activity”.
As to `Nc1nc(O)c2[nH]cc([C@@H]3C=C(CO)[C@@H](O)[C@H]3O)c2n1` [Compound 2, (1′S,2′S,3′R)-9-(2′,3′-Dihydroxy-4′-hydroxymethyl-4′-cyclopenten-1′-yl)-deazaguanosine], the IC50 in the data set “in vitro [1]”, in the data set “in vitro [3]” and in the data set on SARSCoV was over 100 µM in each case. Besides, the “Cytotoxicity in the Punta Toro virus assay (in words)” value in data set [2] is on record as “without any cytotoxicity”.
Turning to `Nc1nc(=O)c([C@@H]2C=C(CO)[C@@H](O)[C@H]2O)c[nH]1` [Compound 3, (1′S,2′S,3′R)-5-(2′,3′-Dihydroxy-4′-hydroxymethyl-4′-cyclopenten-1′-yl)-isocytosine], the IC50 in the data set “in vitro [1]”, in “in vitro [3]” and in the data set with SARSCoV was over 100 µM throughout.
As to `O=c1[nH]cc([C@@H]2C=C(CO)[C@@H](O)[C@H]2O)c(=O)[nH]1` [Compound 4, (1′S,2′S,3′R)-5-(2′,3′-Dihydroxy-4′-hydroxymethyl-4′-cyclopenten-1′-yl)uracil], the IC50 in “in vitro [1]”, in “in vitro [3]” and in the data set with SARSCoV was over 100 µM throughout. Further, the “Cytotoxicity in the Punta Toro virus assay (in words)” value in data set [2] is recorded as “without any cytotoxicity”.

The values are drawn from publication PMC7127144 (Bioorganic & Medicinal Chemistry, 2006).
